Reference: US7476675B2, “Quinolinone derivatives and uses thereof” (Roche Palo Alto LLC, priority 2003, dated 2009)
Structures can show the parent of a compound that is named as a salt.

What was measured:
[1] = molecular target: T1, recombinant human 5-HT6 receptor (Homo sapiens, UniProt P50406); assay: Radioligand binding studies: competition for [3H]LSD binding in membranes of HEK293 cells expressing the receptor; settings: [3H]LSD (5 nM), HEK293 cell membranes, 60 min at 37° C., pH 7.4; read-out: pKi for 5-HT6 (converted)
T1 construct: expressed in transfected cells
T1 sequence (P50406 whole entry): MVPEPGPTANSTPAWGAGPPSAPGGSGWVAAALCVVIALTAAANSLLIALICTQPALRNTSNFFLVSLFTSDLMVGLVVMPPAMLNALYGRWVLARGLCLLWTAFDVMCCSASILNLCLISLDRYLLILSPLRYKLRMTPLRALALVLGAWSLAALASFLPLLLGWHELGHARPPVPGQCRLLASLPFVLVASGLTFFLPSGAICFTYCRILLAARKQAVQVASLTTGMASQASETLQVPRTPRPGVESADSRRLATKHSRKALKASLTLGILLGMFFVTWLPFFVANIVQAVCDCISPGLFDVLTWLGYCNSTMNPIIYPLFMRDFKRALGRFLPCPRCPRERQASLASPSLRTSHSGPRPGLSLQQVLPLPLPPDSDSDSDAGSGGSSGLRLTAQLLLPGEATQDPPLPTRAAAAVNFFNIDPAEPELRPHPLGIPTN
Procedure: The binding activity of compounds of this invention in vitro was determined as follows. Duplicate determinations of ligand affinity are made by competing for binding of [^3H]LSD in cell membranes derived from HEK293 cells stably expressing recombinant human 5-HT6 receptor. This cell line was prepared by the method described by Monsma et al., Molecular Pharmacology, Vol. 43 pp. 320-327 (1993).
All determinations were made in assay buffer containing 50 mM Tris-HCl, 10 mM MgSO4, 0.5 mM EDTA, 1 mM ascorbic acid, pH 7.4 at 37° C., in a 250 microliter reaction volume. Assay tubes containing [^3H] LSD (5 nM), competing ligand, and membrane were incubated in a shaking water bath for 60 min. at 37° C., filtered onto Packard GF-B plates (pre-soaked with 0.3% PEI) using a Packard 96 well cell harvester and washed 3 times in ice cold 50 mM Tris-HCl. Bound [^3H] LSD was determined as radioactive counts per minute using Packard TopCount.
Displacement of [^3H]LSD from the binding sites was quantified by fitting concentration-binding data to a 4-parameter logistic equation:
[formula] where Hill is the Hill slope, [ligand] is the concentration of competing radioligand and IC50 is the concentration of radioligand producing half-maximal specific binding of radioligand. The specific binding window is the difference between the Bmax and the basal parameters.

Row | Structure (SMILES) | melting point | Ki [1]
1 | O=C1CCCc2ccccc2N1Cc1cccc(N2CCNCC2)c1 (as salt: maleate) [Compound 17, 1-(3-Piperazin-1-yl-benzyl)-1,3,4,5-tetrahydrobenzo[b]azepin-2-one] | 149 to 150 °C | 
2 | COc1cc(CN2C(=O)CCc3ccccc32)cc(N2CCNCC2)c1 [Compound 4, 1-(3-Methoxy-5-piperazin-1-yl-benzyl)-3,4-dihydro-1H-quinolin-2-one] |  | ~1 nM
